In brackets after ≈: the same amount, converted by molar mass. Bridge positions count the residues as written; N and C are the ends. Square brackets hold non-standard residues; d marks the D form. Peptide text beside a SMILES is read from it. * marks the point of attachment. Octanoyl(3R-OH) = CCCCC[C@@H](O)CC(=O)*; Myristoyl = CCCCCCCCCCCCCC(=O)*; Orn = NCCC[C@H](N)C(=O)O; Dab = NCC[C@H](N)C(=O)O; Dap = NC[C@H](N)C(=O)O
Columns and labels:
Shigella Castellani LXX = assay: MIC assay (broth micro-dilution); assay type: cell-based; conditions: Shigella; Table S11; LB broth, 37 °C, 16 h, n = 2
Procedure: (§1) All MIC assays were performed two independent times (n = 2) in 96‐well plates using a broth micro‐dilution method. The lowest concentration of that inhibited visible microbial growth was recorded as the MIC value.
(§2) For most of bacterial strains, overnight cultures were diluted 5000‐fold in LB broth. For E. faecium and S. aureus, overnight cultures were diluted 1000‐ and 10000‐fold in LB broth, respectively. 100 µL of diluted cells was mixed with 100 µL of LB broth containing each peptide ranging from 64 to 0.125 µg mL^−1 at 2‐fold serial dilutions.

[1] = system: Klebsiella pneumoniae ATCC 13883; assay: microbe, parasite or virus in culture; assay type: cell-based; conditions: Klebsiella pneumoniae, ATCC13883, 16 h, read-out: MIC Klebsiella pneumoniae ATCC 13883
Procedure: as §1, §2

[2] = system: Acinetobacter baumannii ATCC 19606; assay: microbe, parasite or virus in culture; assay type: cell-based; conditions: Acinetobacter baumannii, ATCC19606; Table S11; LB broth, 37 °C, 16 h, n = 2
Procedure: as §1, §2

[3] = system: Pseudomonas aeruginosa PAO1; assay: microbe, parasite or virus in culture; assay type: cell-based; conditions: Pseudomonas aeruginosa, PAO1; Table S11; LB broth, 37 °C, 16 h, n = 2
Procedure: as §1, §2

[4] = system: Salmonella enterica ATCC 14028; assay: microbe, parasite or virus in culture; assay type: cell-based; conditions: Salmonella enterica, ATCC14028, 16 h, read-out: MIC Salmonella enterica ATCC 14028
Procedure: as §1, §2

[5] = system: Klebsiella pneumoniae CRKP HS11286; assay: microbe, parasite or virus in culture; assay type: cell-based; conditions: Klebsiella pneumoniae, CRKPHS11286, 16 h, read-out: MIC Klebsiella pneumoniae CRKP HS11286
Procedure: as §1, §2

[6] = system: Acinetobacter baumannii ATCC 17978; assay: microbe, parasite or virus in culture; assay type: cell-based; conditions: Acinetobacter baumannii, ATCC17978; Table S11; LB broth, 37 °C, 16 h, n = 2
Procedure: as §1, §2

[7] = system: Vibrio alginolyticus XSBZ14; assay: microbe, parasite or virus in culture; assay type: cell-based; conditions: Vibrio alginolyticus, XSBZ14, 16 h, read-out: MIC Vibrio alginolyticus XSBZ14
Procedure: as §1, §2

[8] = system: Klebsiella pneumoniae CRKP 5452; assay: microbe, parasite or virus in culture; assay type: cell-based; conditions: for MIC (μg/mL) K. pneumoniae CRKP 5452: CRKP 5452, 16 h
Procedure: as §1, §2

[9] = system: Salmonella typhimurium LXX; assay: microbe, parasite or virus in culture; assay type: cell-based; conditions: Salmonella enterica, TYPHIMURIUM, 16 h, read-out: MIC Salmonella typhimurium LXX
Procedure: as §1, §2

[10] = system: Acinetobacter baumannii 1104008; assay: microbe, parasite or virus in culture; assay type: cell-based; conditions: for MIC (μg/mL) A. baumannii 1104008: 1104008, 16 h
Procedure: as §1, §2

[11] = system: Pseudomonas aeruginosa ATCC 9027; assay: microbe, parasite or virus in culture; assay type: cell-based; conditions: Pseudomonas aeruginosa, ATCC9027; Table S11; LB broth, 37 °C, 16 h, n = 2
Procedure: as §1, §2

[12] = system: Acinetobacter baumannii P53; assay: microbe, parasite or virus in culture; assay type: cell-based; conditions: Acinetobacter baumannii, P53; Table S11; LB broth, 37 °C, 16 h, n = 2
Procedure: as §1, §2

[13] = system: Klebsiella pneumoniae NCTC 5056; assay: microbe, parasite or virus in culture; assay type: cell-based; conditions: Klebsiella pneumoniae, NCTC5056, 16 h, read-out: MIC Klebsiella pneumoniae NCTC 5056
Procedure: as §1, §2

[14] = system: Candida albicans ATCC 10231; assay: MIC assay (YPD broth); assay type: cell-based; conditions: ATCC 10231, 16 h
Procedure: as §1
For fungal strains, overnight cultures were diluted 2000‐fold in YPD broth. 100 µL of diluted cells was mixed with 100 µL of YPD broth containing each peptide ranging from […] 64 to 0.125 µg mL^−1 at 2‐fold serial dilutions.

HeLa cells = assay: Cytotoxicity assay (CCK-8); assay type: cell-based, human; conditions: 48 h
Procedure: The cytotoxicity of each synAQU peptide was assessed using a cell counting kit‐8 (CCK‐8) assay. HeLa cells were first seeded in a 96‐well flat‐bottom microtiter plate with a density of ∼5000 cells per well and incubated in the DMEM medium supplemented with 10% FBS at 37 °C with 5% CO2 for 24 h. […] All cytotoxicity experiments were done in triplicate (n = 3) and repeated two independent times (n = 2).

[15] = system: Staphylococcus aureus USA300; assay: microbe, parasite or virus in culture; assay type: cell-based; conditions: USA300, 16 h
Procedure: as §1, §2

[16] = system: Streptococcus pyogenes ATCC 19615; assay: microbe, parasite or virus in culture; assay type: cell-based; conditions: ATCC 19615, 16 h
Procedure: as §1, §2

Row | Structure (SMILES) | MIC (Shigella Castellani LXX) | MIC [1] | MIC [2] | MIC [3] | MIC [4] | MIC [5] | MIC [6] | MIC [7] | MIC ([8]; Klebsiella pneumoniae, CRKP5452, Table S11, LB broth, 37 °C, 16 h, n = 2) | MIC [9] | MIC ([10]; Acinetobacter baumannii, 1104008, Table S11, LB broth, 37 °C, 16 h, n = 2) | MIC [11] | MIC [12] | MIC [13] | MIC (μg/mL) C. albicans ATCC 10231 [14] | MIC (μg/mL) Hela (HeLa cells) | MIC (μg/mL) S. aureus USA300 [15] | MIC (μg/mL) K. pneumoniae CRKP 5452 [8] | MIC (μg/mL) A. baumannii 1104008 [10] | MIC (μg/mL) S. pyogenes ATCC 19615 [16]
1 | C[C@@H](O)[C@H]1C(=O)N2C(C(=O)O)=C(S[C@@H]3CN[C@H](C(=O)N(C)C)C3)[C@H](C)[C@H]12 [Meropenem, reference compound] | 0.125 µg/mL (≈ 0.326 µM) | < 0.125 µg/mL | 0.5 µg/mL (≈ 1.3 µM) | 16 µg/mL (≈ 41.7 µM) | 0.125 µg/mL (≈ 0.326 µM) | 8 µg/mL (≈ 20.9 µM) | 0.25 µg/mL (≈ 0.652 µM) | < 0.125 µg/mL | 16 µg/mL (≈ 41.7 µM) | 0.125 µg/mL (≈ 0.326 µM) | 16 µg/mL (≈ 41.7 µM) | 0.25 µg/mL (≈ 0.652 µM) | 32 µg/mL (≈ 83.4 µM) | 0.125 µg/mL (≈ 0.326 µM) |  |  |  |  |  | 
2 | CCCCCCCCCCCCCC(=O)N[C@@H](Cc1ccccc1)C(=O)N[C@H]1CCCNC(=O)CNC(=O)[C@H](CCN)NC(=O)[C@@H](Cc2ccc(O)cc2)NC(=O)[C@H](CC(C)C)NC(=O)[C@H]([C@@H](C)CC)NC(=O)[C@@H](C(C)C)NC(=O)[C@H](CCCN)NC1=O [synAQU2-C2] (Myristoyl-F[Orn][Orn][dV]IL[dY][Dab]G; lactam 2-C (inferred)) |  |  |  |  |  |  |  |  |  |  |  |  |  |  | > 64 µg/mL | > 64 µg/mL | > 64 µg/mL | > 64 µg/mL | > 64 µg/mL | > 64 µg/mL
3 | CCCCCCCCCCCCCC(=O)N[C@@H](Cc1ccccc1)C(=O)N[C@@H](CCCN)C(=O)N[C@@H](CCCN)C(=O)N[C@@H](C(=O)N[C@H](C(=O)N[C@@H](CC(C)C)C(=O)N[C@H](Cc1ccc(O)cc1)C(=O)N[C@@H](CCN)C(=O)NCC(=O)O)[C@@H](C)CC)C(C)C [synAQU2-L] (Myristoyl-F[Orn][Orn][dV]IL[dY][Dab]G-OH) |  |  |  |  |  |  |  |  |  |  |  |  |  |  | > 64 µg/mL | > 64 µg/mL | > 64 µg/mL | > 64 µg/mL | > 64 µg/mL | > 64 µg/mL
4 | CCCCC[C@@H](O)CC(=O)N[C@H]1CNC(=O)[C@H](CC(=O)O)NC(=O)[C@H](C(C)C)NC(=O)[C@@H](CC(C)C)NC(=O)[C@H](CN)NC(=O)[C@@H](Cc2ccccc2)NC(=O)[C@H]([C@@H](C)O)NC(=O)[C@H](CCN)NC(=O)[C@H](Cc2ccccc2)NC1=O [synAQU3-C1] ({Octanoyl(3R-OH)}-[Dap]F[Dab]T[dF][Dap][dL]VD; lactam 1-C (inferred)) |  |  |  |  |  |  |  |  |  |  |  |  |  |  | > 64 µg/mL | > 64 µg/mL | > 64 µg/mL | > 64 µg/mL | > 64 µg/mL | > 64 µg/mL
